Literature values, collected in patent publication US20030211177A1, “Method and composition for treatment and prevention of alopecia” (priority 2003, published 2003).

Test system: patients' hair (alopecia)
Details: Propecia literature

In the case of CC(C)(C)NC(=O)[C@H]1CC[C@H]2[C@@H]3CC[C@H]4NC(=O)C=C[C@]4(C)[C@H]3CC[C@]12C [Propecia ®, finasteride], the “Excellent Improvement (percent of subjects)” value is given as 0%, the “Moderate Improvement (percent of subjects)” value is given as 4% and the “No Improvement (percent of subjects)” value is given as 62%. For the same compound, the “Slight Improvement (percent of subjects)” value was 34%.
